Measurements reported in US6486098B1, “Herbicidal phenoxypropionic acid N-alkyl-N-2-fluorophenyl amide compounds” (Dongbu Hannong Chemical Co. Ltd., priority 1999, dated 2002).
Several values for one entry are separate records, joined by “and”; a condition that tells them apart may be missing. Equal values may be shown once.

What was measured:
rice = test: Leaf treatment test, 4 leaves, rice (Table 7); format: in vivo, Oryza sativa L. cv. Dongjin
Protocol: (§1) Seeds of rice, wheat, barley, corn, cotton, barnyard grass, common sorgum, large crabgrass and fall panicum were seeded at a pot with a surface area of 600 cm^2. […] 14 days after the treatment, the degree of damage to the plants was rated in % damage in comparison to the development of untreated control.
(§2) Among the compounds of the formula (1), herbicidal activity of the compounds in table 5 is represented in the following table 6 and 7.

ZEAMX (Corn) = test: Leaf treatment test, corn; format: in vivo, Zea mays L.; details: 14 days after treatment
Protocol: as §1

ECHCG (Barnyard grass) = test: Leaf treatment test, barnyard grass; format: in vivo, Echinochloa crus-galli Beauv. var. caudata Kitagawa; details: leaf treatment at three leaves, 14 days after treatment
Protocol: as §1

DIGSA (Large crabgrass) = test: Leaf treatment test, large crabgrass; format: in vivo, Digitaria Sanguinalis (L.) SCOP; details: 14 days after treatment
Protocol: as §1

PANDI (Fall panicum) = test: Leaf treatment test, fall panicum; format: in vivo, Panicum dichotomiflorum Michx; details: 14 days after treatment
Protocol: as §1

GOSHI (Cotton) = test: Leaf treatment test, cotton; format: in vivo, Gossypium; details: 14 days after treatment
Protocol: as §1

Barnyard grass = test: Leaf treatment test, 4 leaves, barnyard grass (Table 7); format: in vivo, Echinochloa crus-galli Beauv. var. caudata Kitagawa
Protocol: as §1, §2

SORBI (Common sorgum) = test: Leaf treatment test, common sorgum; format: in vivo, Andropogon sorghum; details: 14 days after treatment
Protocol: as §1

TRZAW (Wheat) = test: Leaf treatment test, wheat; format: in vivo, Triticum aestivum L.; details: 14 days after treatment
Protocol: as §1

GLXMA (Soy bean) = test: Leaf treatment test, soy bean; format: in vivo, Glycine max (L.) MERR; details: 14 days after treatment
ORYSA (Rice) = test: Leaf treatment test, rice; format: in vivo, Oryza sativa L. cv. Dongjin; details: 14 days after treatment
Protocol: as §1

barnyard grass (ECHOR) = test: Experimental Example 2, herbicidal effect on barnyard grass ECHOR; format: in vivo, Ecliinocgloa crus-galli Beauv. var. orygicola Ohwi; details: 1˜2 tillering, 200 g a.i per hactare on the leaves, Tech. 98%
Description: (§3) Rice[Oryza sativa. L. cv.
(§4) The result is represented in the following table 8.

Rice (ORYSA) = details: 6.0˜6.5 leaves, 200 g a.i per hactare on the leaves, Tech. 98%
Protocol: Rice[Oryza sativa. L. cv. Chuchong(ORYSA)] and barnyard grass [Eclzinocgloa crus-galli beauv. var. caudate Kitagawa(ECHCG) and Ecliinocgloa crus-galli Beauv. var. orygicola Ohwi (ECHOR)] were planted and grown. The test compounds with 98% purity was dissolved in acetone containing tween-20 and diluted with water. Each maximum concentration of acetone and tween-20 were 25% and 0.1%.
The solution was sprayed in a proportion of 200 g a.i per hactare on the leaves. When rice{ORYSA} had 6.0˜6.5 leaves with 32.8 cm of the first leaf, barnyard grass(ECHOR) had 1˜2 tillering with 37.3 cm of the first leaf and barnyard grass(ECHCG) had 1˜2 tillering with 44.4 cm of the first leaf.
20 and 30 days after treatment (DAT) herbicidal effect and toxicity were measured.

barnyard grass (ECHCG) = test: Experimental Example 2, herbicidal effect on barnyard grass ECHCG; format: in vivo, Eclzinocgloa crus-galli beauv. var. caudate Kitagawa; details: 1˜2 tillering, 200 g a.i per hactare on the leaves, Tech. 98%
Description: as §3, §4

| Structure (SMILES) | degree of damage to the plants (% damage) (ZEAMX (Corn); treated amount 0.025 kg/ha) | degree of damage to the plants (% damage) (ZEAMX (Corn); treated amount 0.1 kg/ha) [%] | degree of damage to the plants (% damage) (ZEAMX (Corn); treated amount 0.4 kg/ha) [%] | degree of damage to the plants (% damage) (ECHCG (Barnyard grass); treated amount 0.025 kg/ha) [%] | degree of damage to the plants (% damage) (ECHCG (Barnyard grass); treated amount 0.1 kg/ha) [%] | degree of damage to the plants (% damage) (ECHCG (Barnyard grass); treated amount 0.4 kg/ha) [%] | degree of damage to the plants (% damage) (DIGSA (Large crabgrass); treated amount 0.025 kg/ha) [%] | degree of damage to the plants (% damage) (DIGSA (Large crabgrass); treated amount 0.1 kg/ha) [%] | degree of damage to the plants (% damage) (DIGSA (Large crabgrass); treated amount 0.4 kg/ha) [%] | degree of damage to the plants (% damage) (PANDI (Fall panicum); treated amount 0.025 kg/ha) | degree of damage to the plants (% damage) (PANDI (Fall panicum); treated amount 0.1 kg/ha) [%] | degree of damage to the plants (% damage) (PANDI (Fall panicum); treated amount 0.4 kg/ha) [%] | degree of damage to the plants (% damage) (GOSHI (Cotton); treated amount 0.025 kg/ha) [%] | degree of damage to the plants (% damage) (GOSHI (Cotton); treated amount 0.1 kg/ha) [%] | degree of damage to the plants (% damage) (GOSHI (Cotton); treated amount 0.4 kg/ha) [%] | degree of damage to the plants (% damage) (SORBI (Common sorgum); treated amount 0.025 kg/ha) [%] | degree of damage to the plants (% damage) (SORBI (Common sorgum); treated amount 0.1 kg/ha) [%] | degree of damage to the plants (% damage) (SORBI (Common sorgum); treated amount 0.4 kg/ha) [%] | degree of damage to the plants (% damage) (TRZAW (Wheat); treated amount 0.025 kg/ha) [%] | degree of damage to the plants (% damage) (GLXMA (Soy bean); treated amount 0.025 kg/ha) [%] | also measured |
| --- | --- | --- | --- | --- | --- | --- | --- | --- | --- | --- | --- | --- | --- | --- | --- | --- | --- | --- | --- | --- | --- |
| CC(Oc1ccc(Oc2nc3ccc(Cl)cc3o2)cc1)C(=O)N(C)c1ccccc1F (centres unmarked) [Compound No. 1, 2-[4-(6-Chloro-2-benzoxazoyloxy)-phenoxy]propionic Acid-N-(2-fluorophenyl)-N-methylamide] | 0% | 70 | 100 | 90 | 100 | 100 | 100 | 100 | 100 | 100% | 100 | 100 | 0 | 0 | 0 | 100 | 100 | 100 | 0 | 0 | degree of damage to the plants (% damage) (rice; treated amount 0.016 kg/ha): 0%; degree of damage to the plants (% damage) (rice; treated amount 0.063 kg/ha): 0%; degree of damage to the plants (% damage) (rice; treated amount 0.25 kg/ha): 0%; degree of damage to the plants (% damage) (rice; treated amount 1.0 kg/ha): 0%; degree of damage to the plants (% damage) (Barnyard grass; treated amount 0.016 kg/ha): 75%; degree of damage to the plants (% damage) (Barnyard grass; treated amount 0.063 kg/ha): 100%; degree of damage to the plants (% damage) (Barnyard grass; treated amount 0.25 kg/ha): 100%; degree of damage to the plants (% damage) (Barnyard grass; treated amount 1.0 kg/ha): 100%; degree of damage to the plants (% damage) (TRZAW (Wheat); treated amount 0.1 kg/ha): 0%; degree of damage to the plants (% damage) (TRZAW (Wheat); treated amount 0.4 kg/ha): 0%; degree of damage to the plants (% damage) (GLXMA (Soy bean); treated amount 0.1 kg/ha): 0%; degree of damage to the plants (% damage) (GLXMA (Soy bean); treated amount 0.4 kg/ha): 20%; degree of damage to the plants (% damage) (ORYSA (Rice); treated amount 0.025 kg/ha): 0%; degree of damage to the plants (% damage) (ORYSA (Rice); treated amount 0.1 kg/ha): 0%; degree of damage to the plants (% damage) (ORYSA (Rice); treated amount 0.4 kg/ha): 0% |
| CCOc1ccc(N(C)C(=O)C(C)Oc2ccc(Oc3nc4ccc(Cl)cc4o3)cc2)c(F)c1 (centres unmarked) [Compound No. 12] | 0% | 0 | 0 | 0 | 0 | 30 | 80 | 100 | 100 | 0% | 0 | 0 | 0 | 0 | 0 | 0 | 0 | 30 | 0 | 0 | degree of damage to the plants (% damage) (TRZAW (Wheat); treated amount 0.1 kg/ha): 0%; degree of damage to the plants (% damage) (TRZAW (Wheat); treated amount 0.4 kg/ha): 0%; degree of damage to the plants (% damage) (GLXMA (Soy bean); treated amount 0.1 kg/ha): 0%; degree of damage to the plants (% damage) (GLXMA (Soy bean); treated amount 0.4 kg/ha): 0%; degree of damage to the plants (% damage) (ORYSA (Rice); treated amount 0.025 kg/ha): 0%; degree of damage to the plants (% damage) (ORYSA (Rice); treated amount 0.1 kg/ha): 0%; degree of damage to the plants (% damage) (ORYSA (Rice); treated amount 0.4 kg/ha): 00% |
| CC(Oc1ccc(Oc2nc3ccc(Cl)cc3o2)cc1)C(=O)Nc1ccccc1F (centres unmarked) [control 1, 2-[4-(6-Chloro-2-benzoxazoyloxy)-phenoxy]propionic Acid-N-(2-fluorophenyl)amide, reference compound] | 100% and 80% | 100 | 100 | 100 | 100 | 100 | 100 | 100 | 100 | 100% and 95% | 100 | 100 | 0 | 0 | 0 | 100 | 100 | 100 | 0 | 0 | activity (0˜100), 20 DAT ECHOR (barnyard grass (ECHOR)): 100; toxicity (0˜100) 20 DAT (Rice (ORYSA); 20 DAT): 22; toxicity (0˜100) 30 DAT (Rice (ORYSA); 30 DAT): 39; degree of damage to the plants (% damage) (GLXMA (Soy bean); treated amount 0.4 kg/ha): 40% and 30%; degree of damage to the plants (% damage) (ORYSA (Rice); treated amount 0.025 kg/ha): 35% and 40%; degree of damage to the plants (% damage) (ORYSA (Rice); treated amount 0.1 kg/ha): 50% and 70%; degree of damage to the plants (% damage) (ORYSA (Rice); treated amount 0.4 kg/ha): 70% and 90%; activity (0˜100), 20 DAT ECHCG (barnyard grass (ECHCG)): 100 |
| CCOC(=O)C(C)Oc1ccc(Oc2nc3ccc(Cl)cc3o2)cc1 (centres unmarked) [control 2, Fenoxaprop-ethyl, reference compound] | – | – | – | – | – | – | – | – | – | – | – | – | – | – | – | – | – | – | – | – | degree of damage to the plants (% damage) (rice; treated amount 0.016 kg/ha): 20%; degree of damage to the plants (% damage) (rice; treated amount 0.063 kg/ha): 30%; degree of damage to the plants (% damage) (rice; treated amount 0.25 kg/ha): 70%; degree of damage to the plants (% damage) (rice; treated amount 1.0 kg/ha): 85%; degree of damage to the plants (% damage) (Barnyard grass; treated amount 0.016 kg/ha): 95%; degree of damage to the plants (% damage) (Barnyard grass; treated amount 0.063 kg/ha): 100%; degree of damage to the plants (% damage) (Barnyard grass; treated amount 0.25 kg/ha): 100%; degree of damage to the plants (% damage) (Barnyard grass; treated amount 1.0 kg/ha): 100% |
